According to PMC12466513, “Okanin Attenuates Mitochondrial Dysfunction and Apoptosis in UVA-Induced HaCaT Cells by Mitophagy Through SIRT3 Pathway” (Antioxidants, 2025):

What was measured:
[1] = target: T1, SIRT3 (Homo sapiens, UniProt Q9NTG7); assay: surface plasmon resonance; assay type: binding; parameters: SIRT3 protein used for SPR; PDB 4JT8 was only the docking model
T1 sequence (Q9NTG7 102-399): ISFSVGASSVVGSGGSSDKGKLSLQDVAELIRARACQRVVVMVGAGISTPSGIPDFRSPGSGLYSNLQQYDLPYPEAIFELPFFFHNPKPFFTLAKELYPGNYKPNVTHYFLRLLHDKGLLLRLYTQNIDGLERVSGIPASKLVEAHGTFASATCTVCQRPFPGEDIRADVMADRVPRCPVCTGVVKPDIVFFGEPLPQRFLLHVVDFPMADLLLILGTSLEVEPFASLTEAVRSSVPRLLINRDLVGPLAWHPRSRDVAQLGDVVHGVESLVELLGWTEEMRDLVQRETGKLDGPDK

[2] = target: T1, SIRT3; assay: DARTS (pronase digestion, blot); assay type: biochemical; parameters: detected by blot; conditions: protein lysate

Kd [1]: 4.98 µM
Structure (SMILES): O=C(/C=C/c1ccc(O)c(O)c1)c1ccc(O)c(O)c1O [okanin]
DARTS protection [2]: okanin treatment significantly enhanced SIRT3 resistance to pronase digestion in protein lysates
